Columns and labels:
[1] = Effective concentration that inhibits growth of Trypanosoma cruzi by 50% was reported; format: functional
[2] = test system: Vero; assay: Effective concentration to inhibit the proliferation of amastigote form of the parasite grown on mammalian (Vero) cells; format: functional, cell-based, Chlorocebus sabaeus
[3] = test system: Trypanosoma cruzi; assay: Inhibition of the proliferation of epimastigote form of Trypanosoma cruzi was determined at 10 e-5 M; format: functional

Compound	EC50 [1] [nM]	EC50 [2] [nM]	inhibition [3] [%]
RuCl2(clotrimazole)2 [listing 1 of 2 here]	100	5	
Clc1ccccc1C(c1ccccc1)(c1ccccc1)n1ccnc1 [CLOTRIMAZOLE]	3000		
RuCl2(clotrimazole)2 [listing 2 of 2 here]			90
